Marks after values point to notes of the source that are not given here. No end group written: not given here.
What was measured:
P. aeruginosa = assay: Bactericidal activity assay; format: cell-based, Pseudomonas aeruginosa type 1; settings: 1.2 × 10^−7 M Peptide; 5 × 105 P. aeruginosa
Excerpt: Bacteria: P. aeruginosa type 1 is a clinical isolate maintained in the laboratory. The isolate remains a smooth strain and was serotyped by the scheme of Homma. The Pseudomonas strain was maintained by monthly transfer on blood agar plates.
The peptides can be assayed for bactericidal activity against a variety of organisms such as Pseudomonas aeruginosa type 1, P. cepacia ATCC 25608, E. coli B, and Staphylococcus aureus 502A by standard methods.
Pseudomonas aeruginosa type 1 is a clinical isolate. The isolate remains a smooth strain and was serotyped by the scheme of Homma (Jpn. J. Exp. Med. 46:329, 1976). A rough strain, E. coli B and S. aureus 502A were obtained from Paul Quie, University of Minnesota (Minneapolis, Minn.). The characteristics of the S. aureus strain have been described by Shinefield et al. (Amer. J. Dis. Chil. 105:646, 1963). Pseudomonas cepacia ATCC 25608 can be purchased from the ATCC. S. aureus and E. coli were maintained on nutrient agar plates and the Pseudomonas strains were maintained on blood agar plates.
Pyrogen-free solutions were used throughout the assay and all methods that follow. Log phase bacteria were prepared from a culture in brain heart infusion broth (Hovde et al. Infect. Immun. 54:142–148, 1986) and bacteria were washed and resuspended in saline with adjustment to an optical density at 650 nm to provide a yield of about 3×10^8 CFU/ml. Bacteria were diluted 1:10 in 0.08M citrate phosphate buffer, pH 5.6 or pH 7.0, for use in the assay. S. aureus rapidly lost viability in the pH 5.6 buffer and was studied only at pH 7.0. Bactericidal activity was determined by dose response over peptide concentrations ranging from about […] to about 4.1×10^−9M. Bactericidal activity was determined by dose response, preferably determining LD50 by linear regression.

[1] = test system: Pseudomonas aeruginosa LPS; assay: Endotoxemia in vivo, serum endotoxin levels; set-up: unit not given here; settings: iv 125 μg peptide preincubated with 2 μg LPS per mouse
Protocol: (§1) LPS derived from P. aeruginosa and E. coli 0111:B4 or 055:B5 was purchased from List Biological Laboratories (Campbell, Calif.) and stored at 4° C. until use. A commercially available chromogenic Limulus amoebocyte lysate test (Whittaker, Walkersville, Md.) was used to measure endotoxin levels in all solutions and serum samples. Endotoxin levels in peptide solutions were determined to be less than about 0.1 ng/ml. The capacity of BG22, βpep-3 and BG16 to neutralize E. coli 055:B5 endotoxin in vitro was determined by mixing 0.01 ng of LPS with 5×10^−6M of each peptide and results were compared to that observed for 0.01 ng of LPS alone.
(§2) To study endotoxemia in a mammal, 500 μg of each peptide was added to 8 μg of Pseudomonas aeruginosa LPS in 2.0 ml of pyrogen-free phosphate buffered saline (PBS) ex vivo, and incubated for 30 minutes on a shaker at room temperature. Each mouse was injected via tail vein with 0.5 ml of the mixture (125 μg of BG22, BG16, or βpep-3 and 2 μg of LPS per mouse). Mice were euthanized at 30, 60, 90 and 120 minutes after injection and serum collected just prior to death was analyzed for endotoxin levels and TNF-α concentration.
All TNF-α and endotoxin measurements in duplicate or triplicate in each experiment. In vivo experiments were performed twice to confirm reproducibility. The results obtained were compared using the unpaired Student's t-test.

RAW 264.7 cells = assay: LPS-induced secretion of TNF-α in vitro by RAW 264.7 cells; format: cell-based; settings: 200 ng/ml E. coli 0111:B4 LPS preincubated with 10^−5 M peptide, 3 hours; compared to BG22, p=0.04
Protocol: […] RAW 264.7 cells were placed in each well of a 24-well culture plate and allowed to adhere. Immediately before LPS stimulation, medium was removed and cells were washed in serum-free Dulbecco's modified Eagle's medium (DMDM). Cells were incubated at 37° C. in a 10% CO2 atmosphere for 3 hours with: 1) DMEM alone, 2) E. coli 0111:B4 LPS alone, or 3) E. coli 0111:B4 LPS preincubated with BG22, βpep-3 or BG16. The concentration of LPS used in all groups was 200 ng/ml. To avoid non-specific inhibition of LPS-induced TNF-α secretion, 10^−5 M of each peptide was used in the experimental wells. At the end of the incubation period, macrophage supernatants were collected and assayed for TNF-α concentration.
TNF-α concentrations were measured as described by Battafarano et al. (supra). Briefly, the TNF-α sensitive cell line WEHI was used in all assays of either RAW cell supernatant (in vitro) or serum (in vivo animal model). Concentrations were extrapolated from a standard curve based oil dilutions of purified TNF-α (Genzyme, Cambridge, Mass.), and all samples were examined in triplicate. Viability of the WEHI cells was assessed by measuring the extent of cellular crystal violet uptake by spectrophotometry at 590 nm. In this assay, absorbance was inversely correlated with cell death and lysis resulting from exposure of WEHI cells to TNF-α. […]

TNF-α = assay: Endotoxemia in vivo, serum TNF-α levels; set-up: species or system mouse; settings: 90 minutes post-challenge; compared to mice receiving LPS without peptide, p<0.05
Protocol: TNF-α concentrations were measured as described by Battafarano et al. (supra). Briefly, the TNF-α sensitive cell line WEHI was used in all assays of either RAW cell supernatant (in vitro) or serum (in vivo animal model). Concentrations were extrapolated from a standard curve based oil dilutions of purified TNF-α (Genzyme, Cambridge, Mass.), and all samples were examined in triplicate. Viability of the WEHI cells was assessed by measuring the extent of cellular crystal violet uptake by spectrophotometry at 590 nm. In this assay, absorbance was inversely correlated with cell death and lysis resulting from exposure of WEHI cells to TNF-α. The amount of TNF-α in each experimental sample was extrapolated from the standard curve.
as §2
All TNF-α and endotoxin measurements in duplicate or triplicate in each experiment. […]

[2] = test system: endotoxin from E. coli 055:B5; assay: Limulus amoebocyte lysate assay (E-TOXATE), endotoxin neutralization; format: biochemical; settings: 5.0 × 10^−6 M Peptide; 0.02 U (0.2 pg) endotoxin from E. coli 055:B5; Table 4
Protocol: The peptides were tested for their ability to neutralize endotoxin. Quantitative endotoxin activities for these peptides were measured by Limulus amoebocyte lysate assay.
Limulus amoebocyte lysate assay: The ability of synthetic peptides to neutralize endotoxin was detected with the E-TOXATE kit manufactured by Sigma Chemicals (St. Louis, Mo.). […] Peptide or B/PI was incubated with LPS at room temperature for 5 min in 100 ul of a 1:2 dilution of pyrogen-free saline (pH 6.4). The reaction was started by addition of 100 ul of amoebocyte lysate and the final volume was 200 ul. Assuming a 10,000 molecular weight for LPS, the approximate molar ration of B/PI:LPS at neutralization was 3000 to 1.
The peptides were tested according to the method provided above. […] BG38L was used as a positive control in these experiments.

E. coli 055:B5 endotoxin = assay: Chromogenic Limulus amoebocyte lysate test, neutralization of endotoxin in vitro; format: biochemical; settings: 0.01 ng of LPS mixed with 5×10^−6M peptide
Protocol: as §1

[3] = target: the molecule itself; assay: PFG NMR self-diffusion; self-association
Protocol: (§3) Pulsed-Field Gradient (PFG) NMR Self-Diffusion Measurements of β-Peptide Series Peptides Pulsed-field gradient (PFG) NMR diffusion measurements (Gibbs, et al. *J. Magn. Reson* 93:395–402, 1991) were performed on βpep peptides to assess self-association properties. Pulsed field gradient (PFG) NMR self-diffusion measurements were made on a Bruker AMX-600 using a GRASP gradient unit. NMR spectra for measurement of diffusion coefficients, D, were acquired using a 5 mm triple-resonance probe equipped with an actively shielded z-gradient coil. […]
(§4) The Stokes-Einstein relationship $D = k_B T / 6\pi \eta R$ was used to relate D to the macro-molecular radius, R, which was considered to be proportional to the square root of the apparent molecular weight, Mapp^{1/2} (Cantor et al. 1980. *The behavior of biological macromolecules*. Biophysical Chemistry, part III. New York: W. H. Freeman. pp. 979–1039). […] Use of the Stokes-Einstein relationship is specifically derived for a hard sphere, and although the actual molecular shape of each peptide aggregate would affect the diffusion coefficient, the maximum change in the ratio $Daggregate/Dmonomer$ would be about 20% in case of an improbable linear peptide tetramer. $Mapp$ for peptides was calculated using D values of lysozyme, ribonuclease and ubiquitin as standards for monomers of known molecular weight.

[4] = target: the molecule itself; assay: PFG NMR self-diffusion at 30 C, calibrated with lysozyme, ubiquitin and ribonuclease; self-association
Protocol: Reson* 93:395–402, 1991) were performed on βpep peptides to assess self-association properties. Pulsed field gradient (PFG) NMR self-diffusion measurements were made on a Bruker AMX-600 using a GRASP gradient unit. NMR spectra for measurement of diffusion coefficients, D, were acquired using a 5 mm triple-resonance probe equipped with an actively shielded z-gradient coil. […] The PFG longitudinal eddy-current delay pulse-sequence was used for all self-diffusion measurements which were performed in D_2O over the temperature range 275° K to 310° K Peptide concentrations ranged from 3 mg/mL to 10 mg/mL.
The Stokes-Einstein relationship $D = k_B T / 6\pi \eta R$ was used to relate D to the macro-molecular radius, R, which was considered to be proportional to the square root of the apparent molecular weight, Mapp^{1/2} (Cantor et al. 1980. *The behavior of biological macromolecules*. Biophysical Chemistry, part III. New York: W. H. Freeman. pp. 979–1039). Therefore, D is proportional to Mapp^{-1/2}. From these simple relationships, the ratio $Ddimer/Dmonomer$ was 0.71, which is very close to 0.72 theoretically predicted for a two sphere dimer (Wills, et al. *J. Phys. Chem.* 85: 3978–3984, 1981). Use of the Stokes-Einstein relationship is specifically derived for a hard sphere, and although the actual molecular shape of each peptide aggregate would affect the diffusion coefficient, the maximum change in the ratio $Daggregate/Dmonomer$ would be about 20% in case of an improbable linear peptide tetramer. $Mapp$ for peptides was calculated using D values of lysozyme, ribonuclease and ubiquitin as standards for monomers of known molecular weight.
The temperature dependence of diffusion coefficients is plotted in FIG. 4. […] Moreover, for βpep-5, βpep-8 and βpep-1, the temperature dependence was linear and followed the activation energy expected for the self-diffusion of water.

[5] = target: the molecule itself; assay: PFG NMR self-diffusion, 10 C to 40 C; self-association
Protocol: as §3, §4

[6] = target: the molecule itself; assay: PFG NMR self-diffusion at 2 C; self-association
Protocol: as §3, §4

[7] = target: the molecule itself; assay: NMR solution structure; self-association
[8] = 30 minutes after LPS/Peptide injection
[9] = 60 minutes after LPS/Peptide injection
[10] = 90 minutes after LPS/Peptide injection
[11] = 120 minutes after LPS/Peptide injection

HIKELQVKWKAQKRFLKMSIIVKLNDGRELSLD [βpep-3]
Bactericidal Activity, % killing (P. aeruginosa): 24.9, n = 3%
endotoxemia in vivo, serum endotoxin levels [1, 8]: 11*
endotoxemia in vivo, serum endotoxin levels [1, 9]: 37*
endotoxemia in vivo, serum endotoxin levels [1, 10]: 63*
endotoxemia in vivo, serum endotoxin levels [1, 11]: 66*
LPS-induced TNF-α secretion (in words) (RAW 264.7 cells): significantly greater decrease in TNF-α secretion
serum TNF-α levels (in words) (TNF-α): decreased serum TNF-α levels
Endotoxin Neutralization, % neutralization [2]: 79.4, n = 10%
% Neutralization of Endotoxin (E. coli 055:B5 endotoxin): 81%

NANIKISGKWKAQKRFLKMSGNFDLSI [BG22, a 27mer, BPI aa 82–108]
endotoxemia in vivo, serum endotoxin levels [1, 8]: 7*
endotoxemia in vivo, serum endotoxin levels [1, 9]: 28*
endotoxemia in vivo, serum endotoxin levels [1, 10]: 73*
endotoxemia in vivo, serum endotoxin levels [1, 11]: 47*
serum TNF-α levels (in words) (TNF-α): decreased serum TNF-α levels
% Neutralization of Endotoxin (E. coli 055:B5 endotoxin): 37%

MNSQVCEKVTNSVSSKLQPYFQTLPVMTKI [BG16]
endotoxemia in vivo, serum endotoxin levels [1, 8]: >10,000
endotoxemia in vivo, serum endotoxin levels [1, 9]: 2,394
endotoxemia in vivo, serum endotoxin levels [1, 10]: 5,599
endotoxemia in vivo, serum endotoxin levels [1, 11]: >10,000
% Neutralization of Endotoxin (E. coli 055:B5 endotoxin): 0%

KFIVTLRVIKAGPHSPTAQIIVELKNGRKLSLD-NH2 (not fully specified, It is entered as the monomer chain) [βpep-5]
ratio of average molecular weight to calculated monomer molecular weight [3]: 3.6
average molecular weight (apparent, self-associated state) [4]: 12800 Da

B1: βpep-8 (peptide)
peptide: ANIKLSVEMKLFKRHLKWKIIVKLNDGRELSLD-NH2
modifications: not fully specified
notes: Synthetic 33-mer designed de novo; It is entered as the monomer chain
ratio of apparent molecular weight to calculated monomer molecular weight [5]: 2.4
average molecular weight (apparent, self-associated state) [4]: 9490 Da
ratio of apparent molecular weight to calculated monomer molecular weight [6]: 3.7

B2: βpep-4 (peptide)
peptide: SIQDLNVSMKLFRKQAKWKINVKLNDGRELSLD-NH2
modifications: also: β-sheet sandwich tetramer
notes: as for B1
binding result [7]: binds

B3: βpep-1 (peptide)
peptide: SIQDLNVSMKLFRKQAKWKIIVKLNDGRELSLD-NH2
modifications: not fully specified
notes: as for B1
ratio of average molecular weight to calculated monomer molecular weight [3]: 3.6
average molecular weight (apparent, self-associated state) [4]: 13700 Da

— US7030087B2, “Synthetic approach to designed chemical structures” (priority 1996, dated 2006)
